In experiment [1] the target is T1, EGF receptor tyrosine kinase (EGFRTK) (Homo sapiens, UniProt P00533).
T1 construct: This cell line expresses a large number of EGF receptors which have tyrosine kinase activity on the cell surface; endogenous in cells; host or cells: A 431 (ATCC CRL 1555), membrane preparation
The experiment in a line: biochemical. The protocol:
Test for EGF receptor tyrosine kinase inhibition
This cell line expresses a large number of EGF receptors which have tyrosine kinase activity on the cell surface. The cells were cultured almost to confluence, washed with PBS (phosphate buffered saline, pH 7.2), scraped off the culture flask and incubated at 4° C. for 1 h, subjected to 20 strokes in a Potter and centrifuged at 1000 g for 30'. The supernatant was centrifuged at 20000 g for a further 20 min and the pellet was taken up in 100 μl per 1×10^6 cells as the membrane preparation.
The tyrosine kinase activity of the EGF receptor (EGFRTK) was measured using poly(Glu, Ala, Tyr), 6:3:1, as the substrate. […] After 15'at 30° C., the substrate was precipitated with 10% TCA (trichloroacetic acid), filtered on a millititer filtration plate (Millipore Corporation, Massachusetts, USA), washed and dried. The incorporation of ^32 P was determined by means of a liquid scintillation counter.

Experiment [2] has as its system cAMP-dependent protein kinase (PKA). The experiment in a line: Test for 3',5'-cAMP-dependent protein kinase inhibition (PKA catalytic subunit, Kemptide substrate). Conditions: 40 μM ATP, 15' at 30° C. It is filed as biochemical. On the procedure: Test for 3',5'-cAMP-dependent protein kinase inhibition
The catalytic subunit of the cAMP-dependent protein kinase (PKA) (Sigma) was reconstituted as described by Sigma (Sigma Chemical Co., St. Louis, Mo. USA). The enzyme activity was measured using Kemptide (Sigma) (Leu-Arg-Arg-Ala-Ser-Leu-Gly) as a substrate. […] The reaction was initiated by addition of gamma-^32 P ATP (40 μM) After 15'at 30° C., an aliquot part was added to p81 ion exchanger (2×2 cm; Whatman Paper Ltd., Great Britain), immersed in 75 mM H3 PO4, washed, dried, and the incorporation of ^32 P was determined by means of a liquid scintillation counter.

Another experiment concerns hela cells. The experiment in a line: Test for inhibition of EGF-stimulated proliferation of tumor cells (hela, MTT). It is filed as cell-based. Conditions: 65 h; for inhibition at 5 µg/mL / EGF stimulation % inhibition at 5 μg/ml: 5 μg/ml; for inhibition at 5 µg/mL: read-out: EGF stimulation % inhibition at 5 μg/ml. On the procedure: Test for inhibition of EGF- or bFGF-stimulated proliferation of tumor cells
2×10^3 hela cells per well were inoculated into a 96-well microtiter plate (in RPMI+1% FCS ). After 24 h, the medium was changed to RPMI+0.5% FCS and various concentrations of the test substance±EGF (0.1 nM)/bFGF (1 ng/ml) were added. Each group consisted of 4 wells; the control was only incubated±growth factor. After 65 h, 50 μof MTT (2.5 mg/ml in PBS) were added and the supernatant was removed after 7 h. The colored substance formed by the living cells was dissolved by addition of 100 μl of DMSO/well. The absorption was measured at 492 nm for each well with the aid of a 340 CC Multiscan photometer (Flow).
The mean value is formed from the 4 wells of a group and the absorption difference between the controls± growth factor (A) and between the groups with test substance± growth factor (B) is determined.

Setting [3] is: A 431 membranes, 1000 nM EGF, 32 μM ATP, 15' at 30° C., max. 51 μg/ml, read-out: EGFRTK IC50 (converted).
Where [4] appears, read: 25 μg/ml, hela cells, EGF 0.1 nM, tox = toxic.
Setting [5] is: Homo sapiens, hela cells, EGF 0.1 nM, tox = toxic.
The mark [6] stands for this setting: hela cells, EGF 0.1 nM, tox = toxic.

Where two headings read alike, the source gives them in different places.

T1 sequence (P00533 25-1210): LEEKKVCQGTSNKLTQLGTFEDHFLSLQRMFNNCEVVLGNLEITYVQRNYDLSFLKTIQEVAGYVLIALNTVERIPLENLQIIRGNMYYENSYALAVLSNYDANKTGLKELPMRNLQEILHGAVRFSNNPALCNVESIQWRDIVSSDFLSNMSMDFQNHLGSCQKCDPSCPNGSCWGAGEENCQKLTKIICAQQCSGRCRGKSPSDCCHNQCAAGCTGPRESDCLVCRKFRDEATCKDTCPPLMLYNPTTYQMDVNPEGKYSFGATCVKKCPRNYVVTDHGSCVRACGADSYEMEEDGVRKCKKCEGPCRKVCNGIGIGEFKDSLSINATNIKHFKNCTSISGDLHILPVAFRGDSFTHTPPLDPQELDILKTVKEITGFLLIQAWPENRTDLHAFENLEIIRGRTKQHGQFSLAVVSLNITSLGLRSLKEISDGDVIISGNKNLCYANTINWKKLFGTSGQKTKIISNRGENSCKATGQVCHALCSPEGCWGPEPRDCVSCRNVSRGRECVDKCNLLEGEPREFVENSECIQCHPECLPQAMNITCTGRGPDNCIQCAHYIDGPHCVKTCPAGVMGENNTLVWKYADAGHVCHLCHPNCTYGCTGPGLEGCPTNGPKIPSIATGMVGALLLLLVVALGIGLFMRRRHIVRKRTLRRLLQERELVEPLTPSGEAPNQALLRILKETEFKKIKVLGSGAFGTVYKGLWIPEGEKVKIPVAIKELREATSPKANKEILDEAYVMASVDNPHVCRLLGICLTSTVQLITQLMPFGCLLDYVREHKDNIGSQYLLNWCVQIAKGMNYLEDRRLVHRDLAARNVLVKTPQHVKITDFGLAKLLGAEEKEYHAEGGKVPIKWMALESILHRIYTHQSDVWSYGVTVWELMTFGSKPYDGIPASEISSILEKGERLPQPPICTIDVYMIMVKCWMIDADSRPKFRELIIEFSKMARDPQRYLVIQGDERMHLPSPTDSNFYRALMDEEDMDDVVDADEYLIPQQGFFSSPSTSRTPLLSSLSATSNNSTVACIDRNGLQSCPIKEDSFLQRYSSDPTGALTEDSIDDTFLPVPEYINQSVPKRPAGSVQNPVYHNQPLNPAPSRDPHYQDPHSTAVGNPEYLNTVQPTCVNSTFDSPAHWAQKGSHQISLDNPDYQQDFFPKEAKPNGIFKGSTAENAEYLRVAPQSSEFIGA

As to `Oc1ccc(O)c(C=NN2CCOCC2)c1` [Ex. 11, 2,5-Dihydroxy-N-morpholinobenzaldimine], the IC50 (usually the concentration needed to halve the response being measured) in experiment [1] (setting [3]) was 12.5 µM. In addition, the “PKA % inhib. at 40 μg/ml” value in experiment [2] stood at 0%. The “EGF stimulation % inhibition at 25 μg/ml” value in the experiment with hela cells (setting [4]) is “tox”. For the same molecule, the inhibition at 5 µg/mL with hela cells (setting [5]) turned out to be 17%.
`CN1CCN(N=Cc2cc(O)ccc2O)CC1` [Ex. 12, 2,5-Dihydroxy-N-(4'-methylpiperazino)benzaldimine]: the 50% inhibitory concentration (IC50) in experiment [1] (setting [3]) is 2.38 µM. In addition, in experiment [2], the “PKA % inhib. at 40 μg/ml” value turned out to be 0%. In the experiment on hela cells (setting [4]), the “EGF stimulation % inhibition at 25 μg/ml” value was “tox”. Further, the inhibition at 5 µg/mL in the experiment on hela cells (setting [5]) came to 21%.
As for `Oc1ccc(O)c(C=NC2CCCCC2)c1` [N-Cyclohexyl-2,5-dihydroxybenzaldimine], the IC50 in experiment [1] (setting [3]) is 44.7 µM. Also, in experiment [2], the “PKA % inhib. at 40 μg/ml” value stood at 61%. Besides, the inhibition at 5 µg/mL in the experiment on hela cells (setting [5]) amounted to 39%. Moreover, in the experiment with hela cells (Homo sapiens, 25 μg/ml, hela cells, EGF 0.1 nM, tox = toxic, read-out: EGF stimulation % inhibition at 25 μg/ml), the inhibition at 25 µg/mL was 64%.
For the molecule `Oc1ccc(O)c(C=NN2CCCCCC2)c1` [N-Homopiperidino-2,5-dihydroxybenzaldimine], the IC50 in experiment [1] (setting [3]) was 17.4 µM. Moreover, the “PKA % inhib. at 40 μg/ml” value in experiment [2] was 0%. Also, the “EGF stimulation % inhibition at 5 μg/ml” value in the experiment on hela cells (setting [6]) was “tox”.
In the case of `Oc1ccccc1O` [Pyrocatechol], the IC50 in experiment [1] was 14.5 µM. The “PKA % inhib. at 40 μg/ml” value in experiment [2] came to 0%. In the experiment with hela cells (Homo sapiens, HeLa, read-out: EGF stimulation % inhibition at 0.2 μg/ml), the inhibition at 0.2 µg/mL came to 16%. Besides, in the experiment on hela cells (Homo sapiens, HeLa, read-out: EGF stimulation % inhibition at 1 μg/ml), the inhibition at 1 µg/mL turned out to be 35%.
For the molecule `O=C1C=CC(=O)C=C1.Oc1ccc(O)cc1` [Quinhydrone], the “EGFRTK IC50” value in experiment [1] (A 431 membranes, 1000 nM EGF, 32 μM ATP, 15' at 30° C., max. 51 μg/ml) was 0.126 µg/mL. The “PKA % inhib. at 40 μg/ml” value in experiment [2] came out at 0%. For the same molecule, the “EGF stimulation % inhibition at 1 μg/ml” value in the experiment on hela cells (1 μg/ml, hela cells, EGF 0.1 nM, tox = toxic) worked out at 12%. For the same molecule, the “EGF stimulation % inhibition at 5 μg/ml” value in the experiment with hela cells (setting [6]) worked out at 64%.

Source of the values: patent publication US5519018A, “Substituted phenols and their use for the treatment of disorders caused by cell proliferation” (Behringwerke Aktiengesellschaft, priority 1992, dated 1996).
